The record followed here is patent US8987249B2, “Substituted 2-Aza-bicyclo[2.2.1]heptane-3-carboxylic acid (benzyl-cyano-methyl)-amides inhibitors of Cathepsin C” (Boehringer Ingelheim International GmbH, priority 2013, dated 2015).

For series [1], the target named is recombinant human DPPI (Cathepsin C) (Homo sapiens (Human), UniProt P53634). Put plainly: Inhibition of human DPPI (Cathepsin C). It is filed as biochemical. The conditions noted are these: substrate Gly-Arg-AMC. The essentials: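 Fluorescence read after 30 min room-temperature turnover of 50 μM (final) substrate by recombinant human cathepsin C, pH 6.0 MES/NaCl/DTT/BSA buffer, quenched by Gly-Phe-DMK (1 μM final). Activity as percent of vehicle after background subtraction, used for IC50.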
recombinant human DPPI (Cathepsin C), sequence (P53634 231-394): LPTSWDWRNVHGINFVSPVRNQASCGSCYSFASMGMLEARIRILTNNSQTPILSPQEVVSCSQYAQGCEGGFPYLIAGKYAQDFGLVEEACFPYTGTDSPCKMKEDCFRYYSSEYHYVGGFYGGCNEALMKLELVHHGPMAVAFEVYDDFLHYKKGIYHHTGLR
recombinant human DPPI (Cathepsin C), sequence (P53634 395-463): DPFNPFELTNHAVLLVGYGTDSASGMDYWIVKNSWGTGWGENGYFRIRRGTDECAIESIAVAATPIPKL
recombinant human DPPI (Cathepsin C), sequence (P53634 25-134): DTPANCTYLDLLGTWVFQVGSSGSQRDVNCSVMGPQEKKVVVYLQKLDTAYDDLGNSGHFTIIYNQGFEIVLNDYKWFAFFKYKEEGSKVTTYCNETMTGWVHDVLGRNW

Series [2] concerns the target recombinant human Cathepsin K (Homo sapiens (Human), UniProt P43235). The experiment in a line: Inhibition of human Cathepsin K. It is filed as biochemical. The settings on record: substrate Z-Gly-Pro-Arg-AMC. Put shortly: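 Fluorogenic Z-Gly-Pro-Arg-AMC cleavage, 60 min at room temperature, after a 10 min enzyme–compound preincubation (enzyme 2 ng/μL; compound 0.1 nM–100 μM; 1% DMSO). Buffer pH 5.5 with sodium acetate, EDTA and L-cysteine; procathepsin first activated 30 min at pH 3.5. E64 (1 μM) stop; IC50 derived from percent of vehicle signal minus background (Ex 360/Em 460 nm).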

Series [3] can be described thus: Determination of metabolic stability with human liver microsomes. The settings on record: pooled human liver microsomes; for half-life at 1 μM: human, pH 7.6. A general note: Liver microsomes are a subcellular fraction often used to study metabolism.
Procedure: Determination of Metabolic Stability with Human Liver Microsomes
The metabolic degradation of the test compound is assayed at 37° C. with pooled human liver microsomes. The final incubation volume of 100 μl per time point contains TRIS buffer pH 7.6 (0.1 M), magnesium chloride (5 mM), microsomal protein (1 mg/ml) and the test compound at a final concentration of 1 μM. Following a short preincubation period at 37° C., the reactions are initiated by addition of beta-nicotinamide adenine dinucleotide phosphate, reduced form (NADPH, 1 mM) and terminated by transferring an aliquot into acetonitrile after different time points. Additionally, the NADPH-independent degradation is monitored in incubations without NADPH, terminated at the last time point. The [%] remaining test compound after NADPH independent incubation is reflected by the parameter c (control) (metabolic stability). The quenched incubations are pelleted by centrifugation (10,000 g, 5 min). An aliquot of the supernatant is assayed by LC-MS/MS for the amount of parent compound.
The half-life (t½ INVITRO) is determined by the slope of the semilogarithmic plot of the concentration-time profile.

Each structure is given as a SMILES string.

recombinant human Cathepsin K, sequence (P43235 115-329): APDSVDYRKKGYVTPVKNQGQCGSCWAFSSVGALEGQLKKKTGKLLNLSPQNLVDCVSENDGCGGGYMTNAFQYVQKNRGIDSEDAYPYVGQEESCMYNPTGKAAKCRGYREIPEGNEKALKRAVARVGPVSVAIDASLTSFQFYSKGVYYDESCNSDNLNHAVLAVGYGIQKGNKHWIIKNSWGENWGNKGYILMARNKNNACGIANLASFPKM

As a reminder, the IC50 is the point on the concentration scale where inhibition reaches its midpoint. Broadly, the half-life is the time needed for the level to fall by half in the phase considered. `CN1CCC2(CC1)CC(c1ccc(C[C@@H](C#N)NC(=O)[C@H]3N[C@@H]4CC[C@H]3C4)c(F)c1)C2` [Example 358]: the half-maximal inhibitory concentration (IC50) is 22 nM in series [1] and 9600 nM in series [2]. For the same compound, the half-life at 1 μM in series [3] is above 2.17 h.
The like results for `CS(=O)(=O)c1ccc(-c2ccc(CC(C#N)NC(=O)[C@H]3N[C@@H]4CC[C@H]3C4)c(F)c2)cc1` (stereo partly drawn) [Example 54] were, in that order, 8.2 nM, 4500 nM and above 2.17 h.
The like results for `CN1CCC2CN(c3ccc(C[C@@H](C#N)NC(=O)[C@H]4N[C@@H]5CC[C@H]4C5)c(F)c3)CC21` (stereo partly drawn) [Example 349] were, in that order, 20.6 nM, 5000 nM and above 2.17 h.
In the case of `CC(C)N1CCCN(c2ccc(C[C@@H](C#N)NC(=O)[C@H]3N[C@@H]4CC[C@H]3C4)c(F)c2)CC1` [Example 267], the IC50 in series [1] was 10.5 nM; in series [2] it was 4700 nM. The same compound gave a half-life at 1 μM in series [3] above 2.17 h.
Regarding `CN1CCN(S(=O)(=O)c2ccc(-c3ccc(C[C@@H](C#N)NC(=O)[C@H]4N[C@@H]5CC[C@H]4C5)c(F)c3)cc2)CC1` [Example 155], the half-inhibitory concentration (IC50) in series [1] stood at 0.8 nM; in series [2], 1000 nM. Moreover, the half-life at 1 μM in series [3] was determined as 1.03 h.
`N#CC(Cc1cc2c(=O)[nH]c3cc(F)ccc3c2cc1F)NC(=O)[C@H]1N[C@@H]2CC[C@H]1C2` (stereo partly drawn) [Example 293]: the IC50 in series [1] is 1.3 nM; in series [2] it was 2700 nM. In series [3], this compound returned a half-life at 1 μM above 2.17 h.
The like results for `CS(=O)(=O)c1ccc(-c2ccc(C[C@@H](C#N)NC(=O)[C@H]3N[C@@H]4CC[C@H]3C4)c(F)c2F)cc1` [Example 176] were, in that order, 6.6 nM, 13900 nM and above 2.17 h.
The like results for `N#C[C@H](Cc1ccc(-n2cc(COC(=O)N3CCCC3)nn2)cc1F)NC(=O)[C@H]1N[C@@H]2CC[C@H]1C2` [Example 106] were, in that order, 25.9 nM, 5300 nM and above 2.17 h.
On the same counts, the results for `N#C[C@H](Cc1ccc(-c2cnn(C[C@H]3CCCO3)c2)cc1F)NC(=O)[C@H]1N[C@@H]2CC[C@H]1C2` [Example 260] are 3.5 nM, 3900 nM and above 2.17 h.
For the compound `N#C[C@H](Cc1ccc(N2CCN3CCOC[C@@H]3C2)cc1F)NC(=O)[C@H]1N[C@@H]2CC[C@H]1C2` [Example 249], the figures for the IC50 in series [1] and in series [2] were 6.3 nM and 3600 nM, respectively. The half-life at 1 μM in series [3] is above 2.17 h.
The like results for `N#C[C@H](Cc1ccc(-c2ccc(C(N)=O)o2)cc1F)NC(=O)[C@H]1N[C@@H]2CC[C@H]1C2` [Example 167] were, in that order, 3.4 nM, 6300 nM and above 2.17 h.
The like results for `CS(=O)(=O)c1cc(-c2ccc(C[C@@H](C#N)NC(=O)[C@H]3N[C@@H]4CC[C@H]3C4)c(F)c2)ccc1C#N` [Example 14] were, in that order, 2 nM, 2700 nM and above 2.17 h.
The like results for `CS(=O)(=O)c1ccc(-c2ccc(C[C@@H](C#N)NC(=O)[C@H]3N[C@@H]4CC[C@H]3C4)c(F)c2)cc1F` [Example 12] were, in that order, 1.9 nM, 2100 nM and above 2.17 h.
Turning to `N#CC(Cc1ccc(-c2ccc3c(c2)CNC3=O)cc1F)NC(=O)[C@H]1N[C@@H]2CC[C@H]1C2` (stereo partly drawn) [Example 41], the values for the 50% inhibitory concentration (IC50) in series [1] and in series [2] were 5.3 nM and 4700 nM, respectively. The same compound registered a half-life at 1 μM in series [3] above 2.17 h.
On the same counts, the results for `CN1CCC(N2C(=O)Cc3ccc(-c4ccc(C[C@@H](C#N)NC(=O)[C@H]5N[C@@H]6CC[C@H]5C6)c(F)c4)cc32)CC1` [Example 346] are 1 nM, 4000 nM and above 2.17 h.
With `N#C[C@H](Cc1ccc(N2CCN3CCC[C@H]3C2)cc1F)NC(=O)[C@H]1N[C@@H]2CC[C@H]1C2` [Example 270], the half-inhibitory concentration (IC50) in series [1] is 6.3 nM; in series [2] it was 6100 nM. This compound showed a half-life at 1 μM in series [3] above 2.17 h.
The like results for `N#C[C@H](Cc1ccc(-c2cnn(CC3CCCO3)c2)cc1F)NC(=O)[C@H]1N[C@@H]2CC[C@H]1C2` (stereo partly drawn) [Example 50] were, in that order, 7.4 nM, 3600 nM and above 2.17 h.
For `N#C[C@H](Cc1ccc(-c2cc[nH]n2)cc1F)NC(=O)[C@H]1N[C@@H]2CC[C@H]1C2` [Example 114], the IC50 was 36.7 nM in series [1] and 6800 nM in series [2]. The compound further came in with a half-life at 1 μM in series [3] above 2.17 h.
`N#C[C@H](Cc1cc2c(=O)[nH]c3ccccc3c2cc1F)NC(=O)[C@H]1N[C@@H]2CC[C@H]1C2` [Example 322]: the IC50 amounted to 0.8 nM in series [1] and 1100 nM in series [2]. Moreover, the half-life at 1 μM in series [3] was above 2.17 h.
On the same counts, the results for `N#Cc1ccc2[nH]c(=O)c3cc(CC(C#N)NC(=O)[C@H]4N[C@@H]5CC[C@H]4C5)ccc3c2c1` (stereo partly drawn) [Example 298] are 3.2 nM, 17600 nM and 1.75 h.
On the same counts, the results for `N#Cc1cc(F)c2[nH]c(=O)c3cc(C[C@@H](C#N)NC(=O)[C@H]4N[C@@H]5CC[C@H]4C5)c(F)cc3c2c1` [Example 325] are 1.3 nM, 2300 nM and above 2.17 h.
On the same counts, the results for `CS(=O)(=NC#N)c1cccc(-c2ccc(C[C@@H](C#N)NC(=O)[C@H]3N[C@@H]4CC[C@H]3C4)c(F)c2)c1` (stereo partly drawn) [Example 222] are 2.2 nM, 1700 nM and above 2.17 h.
As for `CC1(C)OC(=O)c2ccc(-c3ccc(C[C@@H](C#N)NC(=O)[C@H]4N[C@@H]5CC[C@H]4C5)c(F)c3)cc21` [Example 156], the concentration for half-maximal inhibition (IC50) in series [1] was determined as 0.6 nM; in series [2] it was 7800 nM. The compound also displayed a half-life at 1 μM in series [3] of 1.58 h.
The like results for `N#C[C@H](Cc1ccc(-c2ccc(C(=O)N3CCN4CCOCC4C3)o2)cc1F)NC(=O)[C@H]1N[C@@H]2CC[C@H]1C2` (stereo partly drawn) [Example 238] were, in that order, 14.3 nM, 9300 nM and 1.83 h.
`CN1Cc2cc(-c3ccc(CC(C#N)NC(=O)[C@H]4N[C@@H]5CC[C@H]4C5)c(F)c3)ccc2C1=O` (stereo partly drawn) [Example 76]: the IC50 in series [1] was 11.7 nM; in series [2], 5300 nM. In series [3], this compound had a half-life at 1 μM of 1.4 h.
On the same counts, the results for `CCNC(=O)c1coc(-c2ccc(C[C@@H](C#N)NC(=O)[C@H]3N[C@@H]4CC[C@H]3C4)c(F)c2)c1` [Example 242] are 10.9 nM, 2500 nM and above 2.17 h.
As for `CN1C(=O)Cc2ccc(-c3ccc(CC(C#N)NC(=O)[C@H]4N[C@@H]5CC[C@H]4C5)c(F)c3)cc21` (stereo partly drawn) [Example 15], the half-maximal inhibitory concentration (IC50) in series [1] came out at 2 nM; in series [2], 3200 nM. The “In vitro stability in human liver microsome incubations t½” value in series [3] (1 μM test compound, 37° C., NADPH) stood at 2.17 h.
In the case of `N#C[C@H](Cc1ccc(-c2cnn(CC3CCOC3)c2)cc1F)NC(=O)[C@H]1N[C@@H]2CC[C@H]1C2` (stereo partly drawn) [Example 21], the IC50 came to 3.1 nM in series [1] and 4900 nM in series [2]. Also, in series [3], the half-life at 1 μM is above 2.17 h.
For `CN1CCCN(c2ccc(C[C@@H](C#N)NC(=O)[C@H]3N[C@@H]4CC[C@H]3C4)c(F)c2)CC1` [Example 247], the half-maximal inhibitory concentration (IC50) was 8.4 nM in series [1] and 4500 nM in series [2]. In series [3], this compound gave a half-life at 1 μM above 2.17 h.
